Earlier results in patent US6821523B2, “Topical administration of pharmacologically active bases in the treatment of warts” (Dermatrends, Inc., priority 2002, dated 2004).

Columns and labels:
cutaneous warts = details: for efficacy in words: survey of clinical trials, local wart treatment

Molecule | efficacy in words (cutaneous warts) | pH of Aqueous Solution, alkalinity in words | other results
bleomycin | weak at best | – | –
O=c1[nH]cc(F)c(=O)[nH]1 [5-fluorouracil] | weak at best | – | –
O=C(O)c1ccccc1O [salicylic acid] | – | – | cure rates (cutaneous warts; simple topical treatments, vs 48% for placebos): about 75%
O=B[O-].[Na+] [Sodium metaborate] | – | Strongly alkaline | –
O.O.O.O.O.O.O.O.O.O.O.O.O=P([O-])([O-])[O-].[Na+].[Na+].[Na+] [Sodium phosphate, tribasic dodecahydrate] | – | – | pH of Aqueous Solution (concentration) (1.0% (1%)): 11.9 (1.0%)
O=P([O-])([O-])O.[K+].[K+] [Potassium phosphate, dibasic] | – | Aqueous solution is slightly alkaline | –
